The values below come from paper PMC5218480 (PLoS ONE, 2017).

For the assay, the system named is MV-4-11 cells. As to the kind of experiment: Gene expression microarray analysis (Affymetrix PrimeView) and GSEA. Also on record: RFU PODN (11730768_x_at) / Fold change /veh PODN (11730768_x_at) / RFU LINC00158 (11744669_a_at) / Fold change /veh LINC00158 (11744669_a_at) / RFU DUSP10 (11751237_a_at) / Fold change /veh DUSP10 (11751237_a_at) / RFU ID3 (11757404_x_at) / Fold change /veh ID3 (11757404_x_at) / RFU PLEKHG5 (11737974_s_at) / Fold change /veh PLEKHG5 (11737974_s_at) / RFU LRRC4B (11730491_at) / Fold change /veh LRRC4B (11730491_at) / RFU GIMAP4 (11747438_a_at) / Fold change /veh GIMAP4 (11747438_a_at) / RFU KRT8 (11758183_x_at) / Fold change /veh KRT8 (11758183_x_at) / RFU CNN1 (11734310_a_at) / Fold change /veh CNN1 (11734310_a_at) / RFU VPS37D (11726825_at) / Fold change /veh VPS37D (11726825_at) / RFU C10orf10 (11716522_x_at) / Fold change /veh C10orf10 (11716522_x_at) / RFU KIR2DL2 /// KIR2DL4 /// KIR2DL5A /// KIR2DL5B /// KIR2DS1 /// KIR2DS2 /// KIR2DS3 /// KIR2DS4 /// KIR3DL3 /// KIR3DL3 /// KIR3DS1 (11738374_at) / Fold change /veh KIR2DL2 /// KIR2DL4 /// KIR2DL5A /// KIR2DL5B /// KIR2DS1 /// KIR2DS2 /// KIR2DS3 /// KIR2DS4 /// KIR3DL3 /// KIR3DL3 /// KIR3DS1 (11738374_at) / RFU C1QL1 (11718748_at) / Fold change /veh C1QL1 (11718748_at) / RFU TMPRSS4 (11747572_a_at) / Fold change /veh TMPRSS4 (11747572_a_at) / RFU HAMP (11756126_x_at) / Fold change /veh HAMP (11756126_x_at) / RFU RNFT2 (11725882_a_at) / Fold change /veh RNFT2 (11725882_a_at) / RFU NR4A2 (11747474_a_at) / Fold change /veh NR4A2 (11747474_a_at) / RFU ABCC12 (11746883_a_at) / Fold change /veh ABCC12 (11746883_a_at) / RFU TMEM136 (11760407_x_at) / Fold change /veh TMEM136 (11760407_x_at) / RFU CLDN22 /// WWC2 (11732394_at) / Fold change /veh CLDN22 /// WWC2 (11732394_at) / RFU HLA-DPB1 (11760878_x_at) / Fold change /veh HLA-DPB1 (11760878_x_at) / RFU SPINT1 (11716480_a_at) / Fold change /veh SPINT1 (11716480_a_at) / RFU GAP43 (11754022_s_at) / Fold change /veh GAP43 (11754022_s_at) / RFU A4GNT (11735810_at) / Fold change /veh A4GNT (11735810_at) / RFU PRB3 (11715151_x_at) / Fold change /veh PRB3 (11715151_x_at) / RFU TUBB4B (11761932_at) / Fold change /veh TUBB4B (11761932_at) / RFU CAPN14 (11732068_a_at) / Fold change /veh CAPN14 (11732068_a_at) / RFU TMCC2 (11721928_a_at) / Fold change /veh TMCC2 (11721928_a_at) / RFU IRGQ (11745062_a_at) / Fold change /veh IRGQ (11745062_a_at) / RFU FAM174B (11720279_a_at) / Fold change /veh FAM174B (11720279_a_at) / RFU TMPRSS4 (11748680_a_at) / Fold change /veh TMPRSS4 (11748680_a_at) / RFU FAM212B (11763350_a_at) / Fold change /veh FAM212B (11763350_a_at) / RFU PLEKHG5 (11743358_a_at) / Fold change /veh PLEKHG5 (11743358_a_at) / RFU ZSCAN30 (11745921_a_at) / Fold change /veh ZSCAN30 (11745921_a_at) / RFU CMKLR1 (11741424_a_at) / Fold change /veh CMKLR1 (11741424_a_at) / RFU LOC101060620 /// MAPK8IP1 (11723275_at) / Fold change /veh LOC101060620 /// MAPK8IP1 (11723275_at) / RFU SPTSSB (11747773_x_at) / Fold change /veh SPTSSB (11747773_x_at) / RFU PRSS12 (11739890_at) / Fold change /veh PRSS12 (11739890_at) / RFU BIN1 (11741810_x_at) / Fold change /veh BIN1 (11741810_x_at) / RFU WNT11 (11732464_a_at) / Fold change /veh WNT11 (11732464_a_at) / RFU C10orf10 (11716521_a_at) / Fold change /veh C10orf10 (11716521_a_at) / RFU C5orf56 (11738089_at) / Fold change /veh C5orf56 (11738089_at) / RFU CYB561 (11721691_x_at) / Fold change /veh CYB561 (11721691_x_at) / RFU ANKRD19P (11752326_a_at) / Fold change /veh ANKRD19P (11752326_a_at) / RFU OR2T12 /// OR2T33 /// OR2T8 (11738714_s_at) / Fold change /veh OR2T12 /// OR2T33 /// OR2T8 (11738714_s_at) / RFU VCAN (11748164_a_at) / Fold change /veh VCAN (11748164_a_at) / RFU JSRP1 (11732532_at) / Fold change /veh JSRP1 (11732532_at) / RFU KRTAP10-11 (11738290_x_at) / Fold change /veh KRTAP10-11 (11738290_x_at) / RFU MYO3A (11730013_a_at) / Fold change /veh MYO3A (11730013_a_at) / RFU EBF3 (11725865_a_at) / Fold change /veh EBF3 (11725865_a_at) / RFU CAMK2N1 (11719241_x_at) / Fold change /veh CAMK2N1 (11719241_x_at) / RFU C5orf56 (11738088_a_at) / Fold change /veh C5orf56 (11738088_a_at) / RFU OLFML3 (11715873_a_at) / Fold change /veh OLFML3 (11715873_a_at) / RFU LOC100653217 /// NTM (11731650_a_at) / Fold change /veh LOC100653217 /// NTM (11731650_a_at) / RFU MAPK11 (11762145_a_at) / Fold change /veh MAPK11 (11762145_a_at) / RFU FIZ1 (11724087_x_at) / Fold change /veh FIZ1 (11724087_x_at) / RFU OASL (11726364_x_at) / Fold change /veh OASL (11726364_x_at) / RFU SOX15 (11748057_x_at) / Fold change /veh SOX15 (11748057_x_at) / RFU CD79A (11719716_a_at) / Fold change /veh CD79A (11719716_a_at) / RFU HIST1H1D (11736915_at) / Fold change /veh HIST1H1D (11736915_at) / RFU CASKIN2 (11723855_a_at) / Fold change /veh CASKIN2 (11723855_a_at) / RFU LOC730098 (11760151_x_at) / Fold change /veh LOC730098 (11760151_x_at) / RFU OR4N2 (11742367_at) / Fold change /veh OR4N2 (11742367_at) / RFU PRRT2 (11749266_a_at) / Fold change /veh PRRT2 (11749266_a_at) / RFU SNX32 (11753110_a_at) / Fold change /veh SNX32 (11753110_a_at) / RFU CDHR5 (11726645_a_at) / Fold change /veh CDHR5 (11726645_a_at) / RFU RCAN1 (11760418_a_at) / Fold change /veh RCAN1 (11760418_a_at) / RFU FAM167A (11723789_a_at) / Fold change /veh FAM167A (11723789_a_at) / RFU FAM26E (11764081_at) / Fold change /veh FAM26E (11764081_at) / RFU ISYNA1 (11749810_s_at) / Fold change /veh ISYNA1 (11749810_s_at) / RFU ACY1 (11761880_at) / Fold change /veh ACY1 (11761880_at) / RFU 11764098_at / Fold change /veh 11764098_at / RFU SAMD14 (11745864_x_at) / Fold change /veh SAMD14 (11745864_x_at) / RFU NPB (11741838_a_at) / Fold change /veh NPB (11741838_a_at) / RFU TMPRSS6 (11731388_a_at) / Fold change /veh TMPRSS6 (11731388_a_at) / RFU KRTAP10-2 (11738614_at) / Fold change /veh KRTAP10-2 (11738614_at) / RFU ARHGAP8 /// PRR5-ARHGAP8 (11727945_x_at) / Fold change /veh ARHGAP8 /// PRR5-ARHGAP8 (11727945_x_at) / RFU KRTAP5-7 /// NADSYN1 (11734609_at) / Fold change /veh KRTAP5-7 /// NADSYN1 (11734609_at) / RFU RASL12 (11751679_a_at) / Fold change /veh RASL12 (11751679_a_at) / RFU CDKN2B (11736163_a_at) / Fold change /veh CDKN2B (11736163_a_at) / RFU PRF1 (11729649_at) / Fold change /veh PRF1 (11729649_at) / RFU, ZNF638 /// ZNF638-IT1 / Fold change vs veh, ZNF638 /// ZNF638-IT1 / RFU, PANK3 / Fold change vs veh, PANK3 / RFU, SH3YL1 / Fold change vs veh, SH3YL1 / RFU, ZEB2 / Fold change vs veh, ZEB2 / RFU, NRIP1 / Fold change vs veh, NRIP1 / RFU, PTTG1IP / Fold change vs veh, PTTG1IP / RFU, CAPN2 / Fold change vs veh, CAPN2 / RFU, MED14 / Fold change vs veh, MED14 / RFU, SNORA58 / Fold change vs veh, SNORA58 / RFU, C1orf63 / Fold change vs veh, C1orf63 / RFU, LRRFIP1 / Fold change vs veh, LRRFIP1 / RFU, NDUFAF7 / Fold change vs veh, NDUFAF7 / RFU, SLC12A2 / Fold change vs veh, SLC12A2 / RFU, IBTK / Fold change vs veh, IBTK / RFU, ESF1 / Fold change vs veh, ESF1 / Fold change vs veh, TMEM50B / RFU, TAOK1 / Fold change vs veh, TAOK1 / RFU, ACBD3 / Fold change vs veh, ACBD3 / RFU, TMA16 / Fold change vs veh, TMA16 / RFU, RWDD3 / Fold change vs veh, RWDD3 / RFU, BCAT1 / Fold change vs veh, BCAT1 / RFU, EDEM3 / Fold change vs veh, EDEM3 / RFU, TMEM33 / Fold change vs veh, TMEM33 / RFU, WDR75 / Fold change vs veh, WDR75 / RFU, AHCTF1 / Fold change vs veh, AHCTF1 / RFU, TFRC / Fold change vs veh, TFRC / RFU, ZDHHC17 / Fold change vs veh, ZDHHC17 / RFU, NOM1 / Fold change vs veh, NOM1 / RFU, ARL8B / Fold change vs veh, ARL8B / RFU, ZBTB11 / Fold change vs veh, ZBTB11 / RFU, TAMM41 / Fold change vs veh, TAMM41 / RFU, KIAA1704 /// LOC100996395 / Fold change vs veh, KIAA1704 /// LOC100996395 / RFU, ING1 / Fold change vs veh, ING1 / RFU, TRMT61B / Fold change vs veh, TRMT61B / RFU, FUBP3 / Fold change vs veh, FUBP3 / RFU, TP53 / Fold change vs veh, TP53 / RFU, TNKS2 / Fold change vs veh, TNKS2 / RFU, ZFP14 / Fold change vs veh, ZFP14 / RFU, ACTR2 / Fold change vs veh, ACTR2 / RFU, PPP3R1 / Fold change vs veh, PPP3R1 / RFU, PIK3R1 / Fold change vs veh, PIK3R1 / RFU, HNRNPA1 / Fold change vs veh, HNRNPA1 / RFU, RNF170 / Fold change vs veh, RNF170 / RFU, ZNF28 / Fold change vs veh, ZNF28 / RFU, RNGTT / Fold change vs veh, RNGTT / RFU, OGT / Fold change vs veh, OGT / RFU, BRD1 / Fold change vs veh, BRD1 / RFU, MARS / Fold change vs veh, MARS / RFU, ZNF655 / Fold change vs veh, ZNF655 / RFU, FAHD1 / Fold change vs veh, FAHD1 / RFU, BDP1 / Fold change vs veh, BDP1 / RFU, LRRCC1 / Fold change vs veh, LRRCC1 / RFU, ARID1A / Fold change vs veh, ARID1A / RFU, ZNF146 / Fold change vs veh, ZNF146 / RFU, ZNF330 / Fold change vs veh, ZNF330 / RFU, GPN3 / Fold change vs veh, GPN3 / RFU, C9orf123 / Fold change vs veh, C9orf123 / RFU, N4BP2L2 / Fold change vs veh, N4BP2L2 / RFU, ARFIP1 / Fold change vs veh, ARFIP1 / RFU, FAM179B / Fold change vs veh, FAM179B / RFU, BCL10 / Fold change vs veh, BCL10 / RFU, UHRF1BP1L / Fold change vs veh, UHRF1BP1L / RFU, BET1 / Fold change vs veh, BET1 / RFU, CNOT2 / Fold change vs veh, CNOT2 / RFU, ZNF268 / Fold change vs veh, ZNF268 / Fold change vs veh, ZNF507 / RFU, DGCR2 / Fold change vs veh, DGCR2 / RFU, WDSUB1 / Fold change vs veh, WDSUB1 / Fold change vs veh, HSP90B1 /// MIR3652 / RFU, ADSS / Fold change vs veh, ADSS / RFU, GK / Fold change vs veh, GK / RFU, ZNF148 / Fold change vs veh, ZNF148 / RFU, TAF9 / Fold change vs veh, TAF9 / RFU, SLC1A5 / Fold change vs veh, SLC1A5 / RFU, SLMO2 / Fold change vs veh, SLMO2 / RFU, ABCC4 / Fold change vs veh, ABCC4 / RFU, LOC101060439 /// RAP1B / Fold change vs veh, LOC101060439 /// RAP1B / RFU, RFX7 / Fold change vs veh, RFX7 / RFU, GTPBP10 / Fold change vs veh, GTPBP10 / RFU, CNEP1R1 / Fold change vs veh, CNEP1R1 / RFU, BIVM-ERCC5 /// ERCC5 / Fold change vs veh, BIVM-ERCC5 /// ERCC5 / RFU, ILF3 / Fold change vs veh, ILF3 / RFU 11762660_at / Fold change /veh 11762660_at / RFU VCAN (11757783_s_at) / Fold change /veh VCAN (11757783_s_at) / RFU DDX43 (11728927_at) / Fold change /veh DDX43 (11728927_at) / RFU KRT8 (11758188_x_at) / Fold change /veh KRT8 (11758188_x_at) / RFU NKD1 (11759106_at) / Fold change /veh NKD1 (11759106_at) / RFU SRD5A1 (11742802_a_at) / Fold change /veh SRD5A1 (11742802_a_at) / RFU TPSAB1 /// TPSB2 (11721975_s_at) / Fold change /veh TPSAB1 /// TPSB2 (11721975_s_at) / RFU GSTM3 (11746129_a_at) / Fold change /veh GSTM3 (11746129_a_at) / RFU IL23R (11737362_x_at) / Fold change /veh IL23R (11737362_x_at) / RFU TMEM51 (11727254_a_at) / Fold change /veh TMEM51 (11727254_a_at) / RFU PIWIL2 (11732686_x_at) / Fold change /veh PIWIL2 (11732686_x_at) / RFU ORM1 (11744905_x_at) / Fold change /veh ORM1 (11744905_x_at) / RFU CCDC152 (11743942_at) / Fold change /veh CCDC152 (11743942_at) / RFU ECM1 (11717891_a_at) / Fold change /veh ECM1 (11717891_a_at) / RFU IL23R (11748794_a_at) / Fold change /veh IL23R (11748794_a_at) / RFU TNFAIP8L3 (11732012_x_at) / Fold change /veh TNFAIP8L3 (11732012_x_at) / RFU MBOAT4 (11741988_at) / Fold change /veh MBOAT4 (11741988_at) / RFU 11764193_at / Fold change /veh 11764193_at / RFU TMEM53 (11763286_at) / Fold change /veh TMEM53 (11763286_at) / RFU MAGEB2 (11727129_at) / Fold change /veh MAGEB2 (11727129_at) / RFU TMEM200A (11744735_a_at) / Fold change /veh TMEM200A (11744735_a_at) / RFU CCDC152 (11751479_a_at) / Fold change /veh CCDC152 (11751479_a_at) / RFU FAM211A (11726209_a_at) / Fold change /veh FAM211A (11726209_a_at) / RFU RGS16 (11746705_a_at) / Fold change /veh RGS16 (11746705_a_at) / RFU VCAN (11755009_s_at) / Fold change /veh VCAN (11755009_s_at) / RFU RHOB (11743442_s_at) / Fold change /veh RHOB (11743442_s_at) / RFU RGS16 (11720943_a_at) / Fold change /veh RGS16 (11720943_a_at) / RFU RGS16 (11720944_at) / Fold change /veh RGS16 (11720944_at) / RFU, VPS4B / Fold change vs veh, VPS4B / RFU, CREB1 / Fold change vs veh, CREB1 / RFU, DNAJC13 / Fold change vs veh, DNAJC13 / RFU, GNAQ / Fold change vs veh, GNAQ / RFU, CDK5R1 / Fold change vs veh, CDK5R1 / RFU, ZRANB3 / Fold change vs veh, ZRANB3 / RFU, CUL4A / Fold change vs veh, CUL4A / RFU, CCNY / Fold change vs veh, CCNY / RFU, UFL1 / Fold change vs veh, UFL1 / RFU, COG3 / Fold change vs veh, COG3 / RFU, DIAPH2 / Fold change vs veh, DIAPH2 / RFU, SKA2 / Fold change vs veh, SKA2 / RFU, AFF3 / Fold change vs veh, AFF3 / RFU, LMF1 / Fold change vs veh, LMF1 / RFU, IPO11 / Fold change vs veh, IPO11 / RFU, DFFB / Fold change vs veh, DFFB / RFU, FOXP1 / Fold change vs veh, FOXP1 / RFU, CARD8 / Fold change vs veh, CARD8 / RFU, STRN3 / Fold change vs veh, STRN3 / RFU, ADK / Fold change vs veh, ADK / RFU, RASSF2 / Fold change vs veh, RASSF2 / RFU, WIPF1 / Fold change vs veh, WIPF1 / RFU, LARP1B / Fold change vs veh, LARP1B / RFU, RASA1 / Fold change vs veh, RASA1 / RFU, RB1 / Fold change vs veh, RB1 / RFU, PPFIA1 / Fold change vs veh, PPFIA1 / RFU, MAT2A / Fold change vs veh, MAT2A / RFU, CCT5 / Fold change vs veh, CCT5 / RFU, WDR92 / Fold change vs veh, WDR92 / RFU, CUX1 / Fold change vs veh, CUX1 / RFU, TTC7A / Fold change vs veh, TTC7A / RFU, TMEM135 / Fold change vs veh, TMEM135 / RFU, DEPTOR / Fold change vs veh, DEPTOR / RFU, CPM / Fold change vs veh, CPM / RFU, DNAJB6 / Fold change vs veh, DNAJB6 / RFU, CACNA2D3 / Fold change vs veh, CACNA2D3 / RFU, DTX4 / Fold change vs veh, DTX4 / RFU, TFCP2 / Fold change vs veh, TFCP2 / RFU, GMCL1 /// GMCL1P1 / Fold change vs veh, GMCL1 /// GMCL1P1 / RFU, AEBP2 / Fold change vs veh, AEBP2 / RFU, SNHG1 /// SNORD22 /// SNORD25 /// SNORD26 /// SNORD27 /// SNORD28 /// SNORD29 /// SNORD31 / Fold change vs veh, SNHG1 /// SNORD22 /// SNORD25 /// SNORD26 /// SNORD27 /// SNORD28 /// SNORD29 /// SNORD31 / Fold change (Aza/veh), C12orf56 (ProbeSet 11735607_a_at) / Fold change (ACY-1035/veh), C12orf56 (ProbeSet 11735607_a_at) / Fold change (Aza/veh), FGFR1OP (ProbeSet 11751329_s_at) / Fold change (ACY-1035/veh), FGFR1OP (ProbeSet 11751329_s_at) / Fold change (Aza/veh), VPS36 (ProbeSet 11739960_a_at) / Fold change (ACY-1035/veh), VPS36 (ProbeSet 11739960_a_at) / RFU SYPL1 (11715823_x_at) / Fold change /veh SYPL1 (11715823_x_at) / RFU IGFBP7 (11715501_s_at) / Fold change /veh IGFBP7 (11715501_s_at) / RFU REEP3 (11722064_at) / Fold change /veh REEP3 (11722064_at) / RFU IGLL1 (11728026_x_at) / Fold change /veh IGLL1 (11728026_x_at): dose or concentration left out as unconfirmed. Conditions: ProbeSet 11732370_a_at; LIST D. Type of assay: cell-based, human.

On to `Nc1ncn([C@@H]2O[C@H](CO)[C@@H](O)[C@H]2O)c(=O)n1` [azacitidine], for which the “Fold change vs veh, CUX1” value was 0.72.
